According to patent US20250346602A1, “LACTAM SUBSTITUTED IMIDAZOPYRIDAZINE IL-17A MODULATORS AND USES THEREOF” (DICE ALPHA, INC., priority 2022, published 2025):
pIC50: −log10 of the molar value.

Target: T1, IL-17A/A (Homo sapiens, UniProt Q16552)
T1 construct: purchased Genscript Z03228
T1 sequence (Q16552 24-155): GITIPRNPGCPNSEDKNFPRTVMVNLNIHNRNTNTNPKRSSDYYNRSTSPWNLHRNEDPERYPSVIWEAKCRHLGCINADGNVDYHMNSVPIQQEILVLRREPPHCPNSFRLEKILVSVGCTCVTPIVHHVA
Experiment: IL-17A/A HEK-Blue cell assay
Type: cell-based
Conditions: HEK-Blue IL-17A reporter cell line (HEK 293), IL-17A/A stimulation, 20 hours incubation, SEAP read at A630
Method in brief: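 IC50 came from a 4-parameter fit of SEAP read at A630 (Quanti-Blue). Compound was titrated to a top final concentration of 10, 1 or 0.3 uM with 0.1% final DMSO and added just before IL-17A/A. Incubation lasted 20 hours in HEK293 cells engineered with IL-17RA, IL-17RC, Act1 and an NFκB-SEAP reporter.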

| pIC50 | Structure (SMILES) |
| --- | --- |
| < 6.00 | CCn1ncnc1C(=O)N[C@H](c1cn2nc(CC3C[C@@H](C(F)(F)F)CNC3=O)ccc2n1)[C@H]1CC[C@H](C)CC1 (stereo partly drawn) [Compound 166, N-((1S)-((1R.4S)-4-methylcyclohexyl)(6-(((5R)-2-oxo-5-(trifluoromethyl)piperidin-3-yl)methyl)imidazo[1,2-b]pyridazin-2-yl)methyl)-1-ethyl-1H-1,2,4-triazole-5-carboxamide] |
| 6.00 to 7.00 | CCn1nccc1C(=O)NC(c1cn2nc(CC3C(=O)NCC4CC43)ccc2n1)C1CCC(C)CC1 (single isomer, unassigned) [Compound 48] |
| 6.00 to 7.00 | Cn1nccc1C(=O)N[C@H](c1cn2nc(CC3C[C@@H](C(F)(F)F)CNC3=O)ccc2n1)[C@H]1CC[C@H](C)CC1 (stereo partly drawn) [Compound 162, 1-methyl-N-((1S)-((1R.4S)-4-methylcyclohexyl)(6-(((5R)-2-oxo-5-(trifluoromethyl)piperidin-3-yl)methyl)imidazo[1,2-b]pyridazin-2-yl)methyl)-1H-pyrazole-5-carboxamide] |
| < 6.00 | Cc1n[nH]cc1C(=O)N[C@H](c1cn2nc(CC3C[C@@H](C(F)(F)F)CNC3=O)ccc2n1)C1CCC(F)(F)CC1 (stereo partly drawn) [Compound 135, N-((1S)-(4,4-difluorocyclohexyl)(6-(((5R)-2-oxo-5-(trifluoromethyl)piperidin-3-yl)methyl)imidazo[1,2-b]pyridazin-2-yl)methyl)-3-methyl-1H-pyrazole-4-carboxamide] |
| < 6.00 | Cc1nonc1C(=O)N[C@H](c1cn2nc(C[C@H]3CCCNC3=O)ccc2n1)C1CCC(F)(F)CC1 [Compound 38, N—((S)-(4,4-difluorocyclohexyl)(6-(((R)-2-oxopiperidin-3-yl)methyl)imidazo[1,2-b]pyridazin-2-yl)methyl)-4-methyl-1,2,5-oxadiazole-3-carboxamide] |
| < 6.00 | CCn1nccc1C(=O)N[C@H](c1cn2ncc(CC3CCCNC3=O)cc2n1)C1CCCCCC1 (mixture of isomers) [Compound 206, N-((1S)-cycloheptyl(7-((2-oxopiperidin-3-yl)methyl)imidazo[1,2-b]pyridazin-2-yl)methyl)-1-ethyl-1H-pyrazole-5-carboxamide] |
| > 7.00 | CCn1nccc1C(=O)N[C@H](c1cn2nc(CC3C[C@@H](C(F)(F)F)CNC3=O)c(N(C)CC(F)(F)F)cc2n1)C1CCC(F)(F)CC1 (single isomer, unassigned) [Compound 181] |
| < 6.00 | CCn1nccc1C(=O)N[C@H](c1cn2nc(CC3CC(F)(F)CNC3=O)ccc2n1)C1CCC(F)(F)CC1 (single isomer, unassigned) [Compound 24] |
| 6.00 to 7.00 | CCn1nccc1C(=O)NC(c1cn2nc(CC3C[C@@H](C(F)(F)F)CNC3=O)ccc2n1)C1CCC2CC2CC1 (single isomer, unassigned) [Compound 175] |
| > 7.00 | CCn1nccc1C(=O)N[C@H](c1cn2nc(CC3C[C@@H](C(F)(F)F)CNC3=O)c(C(C)C)cc2n1)C1CCC(F)(F)CC1 (stereo partly drawn) [Compound 180, N-((1S)-(4,4-difluorocyclohexyl)(7-isopropyl-6-(((5R)-2-oxo-5-(trifluoromethyl)piperidin-3-yl)methyl)imidazo[1,2-b]pyridazin-2-yl)methyl)-1-ethyl-1H-pyrazole-5-carboxamide] |
| 6.00 to 7.00 | O=C(N[C@H](c1cn2nc(CC3C[C@@H](C(F)(F)F)CNC3=O)ccc2n1)C1CCC(F)(F)CC1)c1conc1CC(F)F (stereo partly drawn) [Compound 120, N-((1S)-(4,4-difluorocyclohexyl)(6-(((5R)-2-oxo-5-(trifluoromethyl)piperidin-3-yl)methyl)imidazo[1,2-b]pyridazin-2-yl)methyl)-3-(2,2-difluoroethyl)isoxazole-4-carboxamide] |
| 6.00 to 7.00 | CCc1nonc1C(=O)N[C@H](c1cn2nc(C[C@H]3C[C@@H](C(F)(F)F)NC3=O)ccc2n1)C1CCC(F)(F)CC1 [Compound 17, N—((S)-(4,4-difluorocyclohexyl)(6-(((3R,5S)-2-oxo-5-(trifluoromethyl)pyrrolidin-3-yl)methyl)imidazo[1,2-b]pyridazin-2-yl)methyl)-4-ethyl-1,2,5-oxadiazole-3-carboxamide] |
| > 7.00 | CC(C)n1nccc1C(=O)N[C@H](c1cn2nc(CC3C[C@H](C(F)(F)F)CNC3=O)ccc2n1)[C@H]1CCCC(F)(F)C1 (stereo partly drawn) [Compound 159, N-((1S)—((S)-3,3-difluorocyclohexyl)(6-(((5S)-2-oxo-5-(trifluoromethyl)piperidin-3-yl)methyl)imidazo[1,2-b]pyridazin-2-yl)methyl)-1-isopropyl-1H-pyrazole-5-carboxamide] |
| > 7.00 | CCN(C)c1cc2nc([C@@H](NC(=O)c3ccnn3CC)C3CCC(F)(F)CC3)cn2nc1CC1C[C@@H](C(F)(F)F)CNC1=O (single isomer, unassigned) [Compound 89] |
| 6.00 to 7.00 | CCn1nccc1C(=O)N[C@H](c1cn2nc(CC3C[C@@H](C(F)(F)F)CNC3=O)c(N(C)C3CC3)cc2n1)C1CCC(F)(F)CC1 (single isomer, unassigned) [Compound 90] |
| < 6.00 | CCn1nccc1C(=O)N[C@H](c1cn2nc(C(C)C3C[C@@H](C(F)(F)F)CNC3=O)ccc2n1)C(C1CC1)C1CC1 (single isomer, unassigned) [Compound 56] |
| < 6.00 | CCn1nccc1C(=O)N[C@H](c1cn2nc(CC3C[C@@H](C(F)(F)F)CNC3=O)ccc2n1)[C@H]1C[C@@H](C2CC2)C1 (stereo partly drawn) [Compound 179, N-((1S)-((1S,3R)-3-cyclopropylcyclobutyl)(6-(((5R)-2-oxo-5-(trifluoromethyl)piperidin-3-yl)methyl)imidazo[1,2-b]pyridazin-2-yl)methyl)-1-ethyl-1H-pyrazole-5-carboxamide] |
| 6.00 to 7.00 | O=C(N[C@H](c1cn2nc(CC3C[C@@H](C(F)(F)F)CNC3=O)ccc2n1)C1CCC(F)(F)CC1)c1conc1C1(C(F)(F)F)CC1 (stereo partly drawn) [Compound 138, N-((1S)-(4,4-difluorocyclohexyl)(6-(((5R)-2-oxo-5-(trifluoromethyl)piperidin-3-yl)methyl)imidazo[1,2-b]pyridazin-2-yl)methyl)-3-(1-(trifluoromethyl)cyclopropyl)isoxazole-4-carboxamide] |
| 6.00 to 7.00 | CCn1nccc1C(=O)N[C@H](c1cn2nc(CC3C(=O)NC4CC3C4)ccc2n1)[C@H]1CC[C@H](C)CC1 (stereo partly drawn) [Compound 61, 1-ethyl-N-((1S)-((1r,4S)-4-methylcyclohexyl)(6-((3-oxo-2-azabicyclo[3.1.1]heptan-4-yl)methyl)imidazo[1,2-b]pyridazin-2-yl)methyl)-1H-pyrazole-5-carboxamide] |
| > 7.00 | CCn1nccc1C(=O)N[C@H](c1cn2nc(CC3CC(C(F)(F)F)CNC3=O)ccc2n1)C1CCCCCC1 (stereo partly drawn) [Compound 3, N-((1 S)-cycloheptyl(6-((2-oxo-5-(trifluoromethyl)piperidin-3-yl)methyl)imidazo[1,2-b]pyridazin-2-yl)methyl)-1-ethyl-1H-pyrazole-5-carboxamide] |
| < 6.00 | CCn1nccc1C(=O)N[C@H](c1cn2nc(CC3CCNC3=O)ccc2n1)C1CCC(F)(F)CC1 (single isomer, unassigned) [Compound 1] |
| < 6.00 | CCn1nccc1C(=O)NC(c1cn2nc(CC3C[C@@H](C(F)(F)F)CNC3=O)ccc2n1)C1CCC2CC2CC1 (single isomer, unassigned) [Compound 174] |
| 6.00 to 7.00 | CCn1nccc1C(=O)N[C@H](c1cn2nc(CC3CCNC3=O)ccc2n1)C1CCCCCC1 (single isomer, unassigned) [Compound 4] |
| 6.00 to 7.00 | CCn1nccc1C(=O)N[C@H](c1cn2nc(C(COC)C3C[C@@H](C(F)(F)F)CNC3=O)ccc2n1)C(C1CC1)C1CC1 (single isomer, unassigned) [Compound 62] |
| > 7.00 | CCn1nccc1C(=O)N[C@H](c1cn2ncc(CC3C[C@@H](C(F)(F)F)NC3=O)cc2n1)C1CCCCCC1 (mixture of isomers) [Compound 207, N-((l S)-cycloheptyl(7-(((5S)-2-oxo-5-(trifluoromethyl)pyrrolidin-3-yl)methyl)imidazo[1,2-b]pyridazin-2-yl)methyl)-1-ethyl-1H-pyrazole-5-carboxamide] |
| 6.00 to 7.00 | CCn1nccc1C(=O)N[C@H](c1cn2nc(C[C@@H]3CCCNC3=O)ccc2n1)[C@H]1CC[C@H](C)CC1 [Compound 39, 1-ethyl-N—((S)-((1r,4S)-4-methylcyclohexyl)(6-(((S)-2-oxopiperidin-3-yl)methyl)imidazo[1,2-b]pyridazin-2-yl)methyl)-1H-pyrazole-5-carboxamide] |
| < 6.00 | CCn1nccc1C(=O)N[C@H](c1cn2nc(CC3C(=O)NCC3C(F)(F)F)ccc2n1)C(C1CC1)C1CC1 (single isomer, unassigned) [Compound 46] |
| 6.00 to 7.00 | CCn1nccc1C(=O)N[C@H](c1cn2nc(CC3C[C@@H](C(F)(F)F)CNC3=O)ccc2n1)C1CC2(CCC2)C1 (single isomer, unassigned) [Compound 189] |
| 6.00 to 7.00 | Cn1c(C#N)ccc1C(=O)N[C@H](c1cn2nc(CC3C[C@@H](C(F)(F)F)CNC3=O)ccc2n1)C1CCC(F)(F)CC1 (stereo partly drawn) [Compound 133, 5-cyano-N-((1S)-(4,4-difluorocyclohexyl)(6-(((5R)-2-oxo-5-(trifluoromethyl)piperidin-3-yl)methyl)imidazo[1,2-b]pyridazin-2-yl)methyl)-1-methyl-1H-pyrrole-2-carboxamide] |
| < 6.00 | CCn1nccc1C(=O)N[C@H](c1cn2nc(CC3C[C@@H](C(F)(F)F)CNC3=O)ccc2n1)C1CC2(CC2)C1 (stereo partly drawn) [Compound 192, 1-ethyl-N—((1S)-(6-(((5R)-2-oxo-5-(trifluoromethyl)piperidin-3-yl)methyl)imidazo[1,2-b]pyridazin-2-yl)(spiro[2.3]hexan-5-yl)methyl)-1H-pyrazole-5-carboxamide] |
